Legend:
[1] = molecular target: T1, Factor VIIa/tissue factor (Homo sapiens, UniProt P08709); assay: FVIIa/tissue factor activity measured with S2288 in presence and absence of Zn and chelator; format: biochemical; conditions: 10 nM FVIIa, 50 nM tissue factor
T1 construct: Single-chain factor VII may be converted to two-chain factor VIIa
Method: The activity of 10 nM FVIIa and 50 nM tissue factor in the presence and absence of Zn and chelator was measured with S2288 as described in Example 4

[2] = system: factor VIIa; assay: Effect of zinc and calcium ions on the activity of factor VIIa (FIG. 1A); format: biochemical; conditions: absence of tissue factor (FIG. 1A)
From the text: (§1) An effect of Ca^2+ ions is not easily contemplated in this model since the binding site for Ca^2+ in the serine protease domain is not nearby. […] Since histidines are prominant in zinc coordination we further propose that one or more of the residues of His 211, His 216 and His 256 are involved in the binding of Zn^2+ ions to factor VIIa.

[3] = system: factor VIIa-tissue factor complex; assay: Effect of zinc and calcium ions on the activity of the factor VIIa-tissue factor complex (FIG. 1B); format: biochemical; conditions: presence of tissue factor (FIG. 1B)
From the text: as §1

[4] = blood; cited from earlier work

T1 sequence (P08709 213-466 limits assumed): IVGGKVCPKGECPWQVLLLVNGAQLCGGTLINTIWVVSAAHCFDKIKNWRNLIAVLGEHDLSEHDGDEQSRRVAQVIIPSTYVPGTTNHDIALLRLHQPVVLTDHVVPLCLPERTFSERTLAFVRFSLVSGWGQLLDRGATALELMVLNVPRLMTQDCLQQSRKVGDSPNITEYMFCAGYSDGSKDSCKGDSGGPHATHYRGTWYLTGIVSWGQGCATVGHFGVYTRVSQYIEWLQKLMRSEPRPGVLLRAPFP
T1 sequence (P08709 61-212 partner limits assumed): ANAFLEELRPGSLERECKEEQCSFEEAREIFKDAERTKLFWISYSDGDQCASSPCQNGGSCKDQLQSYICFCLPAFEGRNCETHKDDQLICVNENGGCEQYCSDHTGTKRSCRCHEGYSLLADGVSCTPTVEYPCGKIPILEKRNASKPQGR
T1 sequence (P13726 33-295 partner): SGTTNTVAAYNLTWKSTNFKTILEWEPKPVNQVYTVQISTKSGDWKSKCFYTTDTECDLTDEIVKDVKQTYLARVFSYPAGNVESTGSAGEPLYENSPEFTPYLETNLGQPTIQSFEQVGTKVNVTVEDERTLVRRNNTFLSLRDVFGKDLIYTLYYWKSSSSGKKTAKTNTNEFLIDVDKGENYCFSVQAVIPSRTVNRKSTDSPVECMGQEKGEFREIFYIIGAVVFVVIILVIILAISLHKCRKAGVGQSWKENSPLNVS

Molecule `O=C(NO)c1cc(C(=O)NO)[nH]n1` [NNC (28)] has an activity at 50 µM ([1]; 100 μM ZnCl2, 50 μM compound) of 55% and an activity at 50 µM ([1]; No ZnCl2, 50 μM compound) of 98%.
For `[Zn+2]` [Zn^2+], the “inhibitory effect of Zn2+ on factor VIIa activity in presence of Ca2+” value [2] was “partly abolished by Ca^2+ ions in a competitive manner” and the “inhibitory effect of Zn2+ on factor VIIa activity in presence of Ca2+” value [3] was “partly abolished by Ca^2+ ions in a competitive manner”.
In the case of heparin, the half-life [4] is given as “approximately 80 minutes”.
